# Data reported in patent US6258780A (priority 1997, dated 2001).
# “Also recorded” adds a separate entry of the source.
# Key:
# c-fos mRNA [1] = assay type: cell-based, mouse; settings: with pyridostigmine 1 mM, 1 hour; BAPTA-AM 1 uM or TTX
# hippocampal slices = assay: paired-pulse facilitation in hippocampal slices; assay type: cell-based
# ChAT or VAChT mRNA = assay type: cell-based, mouse; settings: with pyridostigmine 1 mM, 1 hour; BAPTA-AM 1 uM or TTX
# [2] = brain penetration of Evans-blue dye following stress; settings: stressed versus control
# [3] = BBB permeability to Evans Blue following stress, adrenaline or atropine (Example 2)
# [4] = tested on: hippocampal slices, CA1 area; assay type: cell-based
# [5] = tested on: serum butyrylcholinesterase (BuChE); assay: serum BuChE activity after injection in mice; assay type: in vivo, mouse; settings: for reduction of serum BuChE activity from normal levels: non-stressed mice, 0.1 mg/kg i.p., 10 minutes, 3 animals/group
# Method: Symptoms were reported at the end of the study.
# Stress Induction: Stress was induced in adult FVB/N mice by 2×4 minute forced swim with a 4 minute rest interval in a 60×60 cm water bath at about 21° C., adapted from Melia et al, [1994]. […] Animals were decapitated 10 minutes following injection, trunk blood was collected [Melia et al, 1994], and cerebral cortex was quickly dissected and homogenized in solution D (10 mM Tris-HCl, pH 7.4, 1M NaCl, 1% Triton-X100, 1 mM EDTA, 1:10 weight/volume)[Neville et al, 1990]
# c-fos mRNA [6] = assay: brain c-fos mRNA by RT-PCR after pyridostigmine in mice; assay type: in vivo, mouse; settings: 20 minutes following 2 mg/kg
# AChE mRNA = assay: brain AChE mRNA by RT-PCR after pyridostigmine in mice; assay type: in vivo, mouse; settings: pyridostigmine administration, FIG. 10A lower panel
# synaptophysin mRNA = synaptophysin mRNA control test, in vivo or in brain slices; assay type: cell-based
# [7] = remark: listed apart in the source
# Method: Symptoms were reported at the end of the study. […] Percent inhibition (standard deviation was calculated in comparison to the average activity calculated in non-injected, not-stressed (n=12) and stressed (n=6) animals.
# In both human studies each individual was asked to report on a yes/no questionnaire regarding symptoms related to the drug.
# [8] = tested on: readthrough (I4) AChEmRNA; assay: readthrough (I4) AChEmRNA by RT-PCR / in situ hybridization; assay type: cell-based, mouse
# Source text: FIG. 7A are photographs showing kinetic follow-up of RT-PCR: Positions of primer pairs specific for the alternatively spliced AChEmRNA subtypes are presented on the left. [Primer pair 1361+/1869- ("E6") detects mRNA encoding the synaptic AChE form; […] ("I4/E5") detects both a 549 bp product of readthrough AChEmRNA and a 432 bp product encoding the GPI-lined red blood cell (RBC) form of the enzyme]. Note that both in vivo stress and in vitro AChE inhibition promoted significant increases of the readthrough (I4) but not the synaptic (E6) or erythrocyte (E5) forms of AChEmRNA. […] Signals were detected using alkaline phosphatase-streptavidin conjugates and Fast Red as a substrate. Shown are cortical layers II-V (upper panels), and magnified pyramidal neurons of cortical layer no. 2 (lower panels).
# Selective induction of readthrough AChEmRNA following stress and AChE inhibition were measured using kinetic follow-up of RT-PCR. The positions of primer pairs specific for the alternatively spliced AChEmRNA subtypes are presented on the left of the FIG. 7. [Primer pair 1361+/1869- ("E6") detects mRNA encoding the synaptic AChE form; 1361+/175- ("I4/E5") detects both a 549 bp product of readthrough AChEmRNA and a 432 bp product encoding the GPI-lined red blood cell (RBC) form of the enzyme]. Both in vivo stress (forced swimming) and in vitro AChE inhibition promoted significant increases of the readthrough (I4) but not the synaptic (E6) or erythrocyte (E5) forms of AChEmRNA. […] Signals were detected using alkaline phosphatase-streptavidin conjugates and Fast Red as a substrate. […] 2 (lower panels).
# serum BuChE [9] = settings: 0.1-0.5 mg/kg; cited from earlier work
# serum BuChE [10] = settings: cited from earlier work
# [11] = similar regimen; cited from earlier work
# [12] = cited from earlier work
# [13] = PNS symptoms questionnaire, pyridostigmine in humans
# [14] = HRP penetration into brain following swim stress (immunohistochemistry)
molecule,measurement,setting,value
CC(C)NC[C@H](O)COc1cccc2ccccc12 (racemic) [propanolol],time for body temperature to return to normal,post injection,≤ 80 min
same,time of reduction in body temperature,pyridostigmine alone or together with propanolol,≤ 40 min
CC(=O)OCOC(=O)CN(CC(=O)OCOC(C)=O)c1ccccc1OCCOc1ccccc1N(CC(=O)OCOC(C)=O)CC(=O)OCOC(C)=O [BAPTA-AM],anti-cholinesterase-induced change in c-fos mRNA,c-fos mRNA [1],attenuated; also recorded: suppressed
same,physostigmine-induced prolongation of paired-pulse facilitation,"hippocampal slices; 1 uM physostigmine and 1 uM BAPTA-AM, 1 hour",complete prevention
same,enhanced paired-pulse facilitation,"hippocampal slices; BAPTA-AM, FIG. 5A",prevented
same,anti-cholinesterase-induced change in ChAT mRNA,ChAT or VAChT mRNA,attenuated; also recorded: suppressed
NCCc1ccc(O)c(O)c1 [DA],enhancement of the body temperature reduction by coinjection,DA 1.0 mg/kg with pyridostigmine 0.6 mg/kg,approximately 0.5 °C
Cc1cc(-c2ccc(/N=N/c3ccc4c(S(=O)(=O)O)cc(S(=O)(=O)O)c(N)c4c3O)c(C)c2)ccc1/N=N/c1ccc2c(S(=O)(=O)O)cc(S(=O)(=O)O)c(N)c2c1O [Evans-blue],increase in brain penetration of Evans-blue under stress,[2],> 10 fold
same,BBB permeability to Evans Blue,[3]; following stress or 10 minutes after ip adrenaline or atropine,enhanced BBB permeability
CNCC(O)c1ccc(O)c(O)c1 (centres unmarked) [adrenaline],effectiveness in opening the BBB compared with stress,"[3]; administered doses and time course, atropine or adrenaline ip",somewhat less effective
CN1[C@@H]2CC[C@H]1C[C@@H](OC(=O)C(CO)c1ccccc1)C2 (some centres unmarked) [atropine],both phases of physostigmine-mediated hyperactivity,[4],blocked
same,suppression 1 hour after removal of atropine,[4],no suppression took place
C[N+](C)(C)CCOC(N)=O [carbachol],amplitude of population spikes,[4],increased the amplitude of population spikes
same,signal increase by carbamylcholine,[4],dose-dependent increases in signal
CNC(=O)Oc1ccc2c(c1)[C@]1(C)CCN(C)[C@@H]1N2C [physostigmine],reduction of serum BuChE activity from normal levels,[5],22.6+/-5.4%
same,responsiveness of cholinergic pathways to stimulation,[4],"prominently muted, approaching that displayed by control slices"
same,"paired-pulse facilitation responses, 1 hour","hippocampal slices; 1 mM physostigmine, 1 hour",prolonged duration and the intense signals of facilitation responses
same,"paired-pulse facilitation responses, 3 hours","hippocampal slices; 1 mM physostigmine, 3 hours",suppression of both these responses
CN(C)C(=O)Oc1ccc[n+](C)c1 [pyridostigmine],reduction of serum BuChE activity from normal levels,[5],16.7+/-6.9%
same,BuChE inhibition in stressed mice,"[5]; stressed mice, 0.1 mg/kg",tendency toward limitation of BuChE inhibition
same,amount of c-fos and AChE mRNA (earlier appearance of PCR product),c-fos mRNA [6],increase in the amount of c-fos (upper panel) and AChE mRNA (lower panel)
same,AChE mRNA product appearance,AChE mRNA,earlier appearance
same,synaptophysin mRNA,synaptophysin mRNA,no change
same,amplitude and rate of rise of evoked population spikes in CA1,[4],increase in the amplitude and rate of rise of evoked population spikes
same,"soldiers reporting CNS symptoms, average","[7]; Gulf War, 213 soldiers",23.6%
same,"soldiers reporting CNS symptoms, range","[7]; Gulf War, 213 soldiers",6.2-53.4%
same,"participants reporting CNS symptoms, average","[7]; peace time, double-blind",8.3%
same,"participants reporting CNS symptoms, range","[7]; peace time, double-blind",0-16.6%
same,subcellular localization of I4-AChEmRNA,[8]; pyridostigmine 2 mg/kg,shifted from around the nucleus under control conditions to the entire cell bodies and their apical dendrites
same,I4-AChEmRNA labeling of cortical layers,"[8]; pyridostigmine 2 mg/kg, control: layers II+V",intensified and included layer III+IV
same,"readthrough AChE mRNA labeling of somata and apical dendrites, all cortical layers",[8]; pyridostigmine exposure,intensely labeled
same,inhibition of serum BuChE activity at protective doses,serum BuChE [9],15-30%
same,"inhibition efficacy of serum butyrylcholinesterase, Gulf War",serum BuChE [10],not modified
same,"frequency of reported CNS symptoms, increase during the Gulf War",[11],> 3 fold
same,CNS functions in primates,[12]; doses >1 mg/kg,perturb CNS functions
same,CNS functions in non-stressed primates or humans at peace time,[12]; non-stressed,unaffected CNS functions
same,"soldiers reporting PNS symptoms, average","[13]; Gulf War, 213 soldiers",11.4%
same,"soldiers reporting PNS symptoms, range","[13]; Gulf War, 213 soldiers",6.1-20.4%
same,"participants reporting PNS symptoms, average","[13]; peace time, double-blind",18.8%
same,"participants reporting PNS symptoms, range","[13]; peace time, double-blind",5.5-38.9%
"HRP: horseradish peroxidase, used to study changes in the BBB",HRP staining of the hippocampus,[14]; following forced swimming,highest number of stained cells; also recorded: strong HRP staining
same,penetration of HRP into brain,[14]; forced swimming stress,increased penetration
same,"HRP staining, Corpus callosum, non-stressed control",[14]; non-stressed control,little staining
same,"HRP staining, Hippocampus, CA1-2, non-stressed control",[14]; non-stressed control,no staining
same,"HRP staining, Medial hypothalamus (arcuate nucleus), non-stressed control",[14]; non-stressed control,+ (diffuse staining)
same,"HRP staining, Hippocampus, CA1-2, stressed",[14]; stressed,staining of cells
same,HRP staining of central nucleus of amygdala and paraventricular nucleus of hypothalamus,[14]; stressed mice,absence of HRP staining
